From ChEMBL document CHEMBL1141601, “Exploring the molecular basis of action of the passive antiglucocorticoid 21-hydroxy-6,19-epoxyprogesterone” (J Med Chem, 2008)
Activity calls are given as the source filed them.

Columns and labels:
[1] = target: T1, Tyrosine aminotransferase (Homo sapiens) (UniProt P17735); assay: Induction of tyrosine aminotransferase
T1 sequence (whole entry): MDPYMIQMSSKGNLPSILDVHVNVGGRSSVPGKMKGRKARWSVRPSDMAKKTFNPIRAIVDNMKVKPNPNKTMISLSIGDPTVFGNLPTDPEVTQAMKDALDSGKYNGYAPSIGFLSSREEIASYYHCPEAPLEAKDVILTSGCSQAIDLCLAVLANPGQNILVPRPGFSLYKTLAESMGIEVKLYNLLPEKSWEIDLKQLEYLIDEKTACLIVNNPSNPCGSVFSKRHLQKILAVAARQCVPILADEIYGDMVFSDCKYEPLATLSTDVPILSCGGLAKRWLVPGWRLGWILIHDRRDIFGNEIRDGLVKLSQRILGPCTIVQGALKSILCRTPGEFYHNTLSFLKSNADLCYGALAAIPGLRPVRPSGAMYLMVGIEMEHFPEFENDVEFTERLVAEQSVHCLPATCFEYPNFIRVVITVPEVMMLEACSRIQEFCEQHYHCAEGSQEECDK

Liver = assay: Effect on increase in glycogen deposition in rat liver; type: functional, tissue-based
[2] = target: T2, Glucocorticoid receptor (Homo sapiens) (UniProt P04150); assay: Activity at GR expressed in mouse L929 cells at 10 uM by transactivation assay relative to control; type: cell-based
T2 sequence (whole entry): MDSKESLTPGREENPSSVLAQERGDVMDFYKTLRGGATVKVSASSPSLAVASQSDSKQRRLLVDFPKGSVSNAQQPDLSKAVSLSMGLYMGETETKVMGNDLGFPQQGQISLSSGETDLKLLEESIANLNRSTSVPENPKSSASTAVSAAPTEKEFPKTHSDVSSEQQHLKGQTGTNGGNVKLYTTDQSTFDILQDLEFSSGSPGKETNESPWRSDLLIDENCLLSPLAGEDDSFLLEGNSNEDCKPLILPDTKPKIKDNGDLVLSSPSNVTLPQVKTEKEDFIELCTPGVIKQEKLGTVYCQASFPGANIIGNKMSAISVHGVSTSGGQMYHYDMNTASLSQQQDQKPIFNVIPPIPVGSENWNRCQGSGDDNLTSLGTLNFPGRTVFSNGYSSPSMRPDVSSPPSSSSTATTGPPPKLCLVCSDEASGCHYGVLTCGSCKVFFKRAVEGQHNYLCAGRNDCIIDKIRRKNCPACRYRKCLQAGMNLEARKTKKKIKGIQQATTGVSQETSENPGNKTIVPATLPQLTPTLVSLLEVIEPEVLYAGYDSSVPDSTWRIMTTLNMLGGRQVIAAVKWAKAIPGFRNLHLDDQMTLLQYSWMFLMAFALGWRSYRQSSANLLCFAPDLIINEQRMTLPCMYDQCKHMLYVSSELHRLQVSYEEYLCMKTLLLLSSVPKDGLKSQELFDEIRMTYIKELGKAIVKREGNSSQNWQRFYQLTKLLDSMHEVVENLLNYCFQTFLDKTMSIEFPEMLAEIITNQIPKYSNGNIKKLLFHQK

Measured: Activity

C[C@]12CC[C@H]3[C@@H](CC4OC[C@@]35CCC(=O)C=C45)[C@@H]1CC[C@@H]2C(=O)CO
inactive: all assays above
